The results in this text go back to PubChem BioAssay (NCI).

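Grown in 96-well plates, cells were treated for 48 hours with each compound at five concentrations. Insufficient inhibition: endpoint recorded as highest concentration tested. At the TGI there is no net growth.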

Test systems include SK-MEL-5 melanoma; UO-31 renal; EKVX NSCLC; K-562 leukemia; OVCAR-3 ovarian; OVCAR-5 ovarian; HCT-116 colon; SNB-19 CNS; CCRF-CEM leukemia; NCI-H460 lung.
What all share (assay): NCI anticancer screen, dose series, 48 h

`O=c1[nH]c(Nc2ccc(Cl)c(C(F)(F)F)c2)nc2nc[nH]c12`: the TGI in the test on SK-MEL-5 melanoma, in the test with UO-31 renal, in the test with EKVX NSCLC, in the test on K-562 leukemia, in the test on OVCAR-3 ovarian and with OVCAR-5 ovarian was above 100 µM throughout. The TGI with HCT-116 colon was above 100 µM; in the test with SNB-19 CNS, above 100 µM; in the test with CCRF-CEM leukemia it was 45.4 µM; in the test on NCI-H460 lung, above 100 µM.

Take `Nc1ncnc2c1sc1nc3ccccc3n12`: the TGI in the test on SK-MEL-5 melanoma, with UO-31 renal, in the test on EKVX NSCLC, in the test on K-562 leukemia, in the test on OVCAR-3 ovarian and with OVCAR-5 ovarian was above 100 µM in each case. Further, the TGI in the test with SNB-19 CNS, with CCRF-CEM leukemia and in the test on NCI-H460 lung was above 100 µM in each case.

For `CC(C)(C)OC(=O)NC(CCCCNC(=O)OCc1ccccc1)C(=O)NCCNc1ccc(NCCNC(=O)C(CCCCNC(=O)OCc2ccccc2)NC(=O)OC(C)(C)C)c2c1C(=O)c1ccccc1C2=O` (stereo unspecified), the TGI in the test with SK-MEL-5 melanoma, with UO-31 renal, in the test on EKVX NSCLC, with K-562 leukemia, in the test with OVCAR-3 ovarian and in the test with OVCAR-5 ovarian was above 100 µM throughout. In addition, the TGI with HCT-116 colon was above 75.1 µM; with SNB-19 CNS it was 45.9 µM; in the test on CCRF-CEM leukemia, above 100 µM; in the test on NCI-H460 lung, above 100 µM.

Take `COc1c(CC=C(C)C)c(O)c(C(CC(C)C)c2c(O)c3c(c(C(C)=O)c2O)OC(C(C)(C)O)C3)c(O)c1C(C)=O` (stereo unspecified): the TGI in the test with SK-MEL-5 melanoma is 4.44 µM; in the test on UO-31 renal, above 12.5 µM; with EKVX NSCLC it was above 12.5 µM; with K-562 leukemia it was 9.11 µM; in the test with OVCAR-3 ovarian, above 12.5 µM; with OVCAR-5 ovarian it was above 12.5 µM. The TGI in the test on HCT-116 colon was above 12.5 µM; with SNB-19 CNS, above 12.5 µM; with CCRF-CEM leukemia, 9.74 µM.

`O=C(O[C@@H](/C=C/c1ccccc1)P1(=O)N(Cc2ccccc2)[C@H]2CCCC[C@@H]2N1Cc1ccccc1)c1ccccc1`: the TGI in the test with SK-MEL-5 melanoma is 3.67 µM; in the test with UO-31 renal, 11.7 µM; with EKVX NSCLC, above 100 µM; in the test on K-562 leukemia, above 100 µM; in the test with OVCAR-3 ovarian, 33.9 µM; in the test on OVCAR-5 ovarian, above 100 µM. In addition, the TGI with HCT-116 colon is above 100 µM; in the test on SNB-19 CNS, above 100 µM; in the test with CCRF-CEM leukemia, 17.9 µM; in the test with NCI-H460 lung, 5.26 µM.

With `O=C(CSc1nc2ccc([N+](=O)[O-])cc2s1)c1ccc2ccccc2c1`, the TGI in the test with SK-MEL-5 melanoma, with UO-31 renal, in the test with EKVX NSCLC, with K-562 leukemia, with OVCAR-3 ovarian and with OVCAR-5 ovarian was above 100 µM throughout. Moreover, the TGI with HCT-116 colon, with SNB-19 CNS, in the test on CCRF-CEM leukemia and in the test with NCI-H460 lung was above 100 µM each time.

For `COc1ccc(C2NC(=S)Nc3c2c(=O)oc2c3ccc3ccccc32)cc1` (stereo unspecified), the TGI in the test on SK-MEL-5 melanoma, with UO-31 renal, in the test with EKVX NSCLC, in the test on K-562 leukemia, in the test on OVCAR-3 ovarian and in the test with OVCAR-5 ovarian was above 100 µM in each case. The TGI with HCT-116 colon, with SNB-19 CNS, with CCRF-CEM leukemia and in the test with NCI-H460 lung was above 100 µM throughout.

With `Cc1c(N2C(=O)/C(=C/c3ccc(Cl)cc3)N=C2c2ccccc2)c(=O)n(-c2ccccc2)n1C`, the TGI in the test on SK-MEL-5 melanoma was 34.3 µM; in the test with UO-31 renal it was 93.7 µM; with EKVX NSCLC, 63.4 µM; in the test on K-562 leukemia it was above 100 µM; with OVCAR-3 ovarian, above 100 µM; in the test with OVCAR-5 ovarian it was above 100 µM. The TGI in the test with HCT-116 colon, with CCRF-CEM leukemia and in the test on NCI-H460 lung was above 100 µM throughout.

Regarding `N#CC12Cc3cc4c(cc3-c3cccc(c31)CCN2C(=O)c1ccccc1)OCO4` (stereo unspecified), the TGI with SK-MEL-5 melanoma, in the test on UO-31 renal, in the test on EKVX NSCLC, in the test with K-562 leukemia, in the test with OVCAR-3 ovarian and in the test with OVCAR-5 ovarian was above 100 µM throughout. For the same compound, the TGI in the test on HCT-116 colon, in the test on SNB-19 CNS and with CCRF-CEM leukemia was above 100 µM in each case.

With `Cn1cnc([N+](=O)[O-])c1Sc1nc(N)nc2c1ncn2C1OC(CO)C(O)C1O` (stereo unspecified), the TGI in the test on SK-MEL-5 melanoma is 25.7 µM; with UO-31 renal it was 37.4 µM; in the test with EKVX NSCLC, above 100 µM; in the test on K-562 leukemia it was above 100 µM; in the test with OVCAR-3 ovarian, above 43.4 µM; in the test on OVCAR-5 ovarian, above 100 µM. The TGI is above 52.2 µM in the test with HCT-116 colon, above 100 µM in the test with SNB-19 CNS, above 100 µM in the test on CCRF-CEM leukemia and 28.1 µM in the test with NCI-H460 lung.

Consider `Cc1ccccc1N=Nc1c(O)c(S(=O)(=O)O)cc2cc(S(=O)(=O)O)ccc12`, for which the TGI in the test with SK-MEL-5 melanoma, in the test on UO-31 renal, in the test with EKVX NSCLC, in the test with K-562 leukemia, in the test with OVCAR-3 ovarian and in the test with OVCAR-5 ovarian was above 100 µM in each case. The TGI in the test with HCT-116 colon, in the test on SNB-19 CNS, in the test with CCRF-CEM leukemia and in the test with NCI-H460 lung was above 100 µM in each case.

`COc1cc2oc(=O)ccc2cc1C(=O)CC(C)C`: the TGI in the test with SK-MEL-5 melanoma, in the test on UO-31 renal, in the test on EKVX NSCLC, in the test with K-562 leukemia, in the test on OVCAR-3 ovarian and in the test with OVCAR-5 ovarian was above 100 µM throughout. For the same compound, the TGI in the test on HCT-116 colon, in the test on SNB-19 CNS, in the test with CCRF-CEM leukemia and in the test with NCI-H460 lung was above 100 µM throughout.

With `O=c1ccc2nc3cc(Br)ccc3sc-2c1`, the TGI in the test with SK-MEL-5 melanoma, in the test on UO-31 renal, with EKVX NSCLC, in the test with K-562 leukemia, with OVCAR-3 ovarian and in the test on OVCAR-5 ovarian was above 100 µM each time. Further, the TGI was above 100 µM in the test with HCT-116 colon, above 100 µM with SNB-19 CNS, 72.5 µM in the test on CCRF-CEM leukemia and above 100 µM in the test with NCI-H460 lung.

As for `Cn1c(=O)[nH]c2nncnc2c1=O`, the TGI was 177 µM with SK-MEL-5 melanoma; 358 µM with UO-31 renal; 289 µM in the test with EKVX NSCLC; above 519 µM in the test with K-562 leukemia; 298 µM with OVCAR-3 ovarian; above 625 µM with OVCAR-5 ovarian. In addition, the TGI in the test on HCT-116 colon is 219 µM; in the test on SNB-19 CNS, 419 µM; in the test on CCRF-CEM leukemia, above 625 µM; with NCI-H460 lung it was 245 µM.

Consider `O=C(O)c1ccc(C(=O)c2ccccc2C(=O)O)cc1C(=O)O`, for which the TGI in the test on SK-MEL-5 melanoma, with UO-31 renal, in the test with EKVX NSCLC, with K-562 leukemia, in the test on OVCAR-3 ovarian and with OVCAR-5 ovarian was above 100 µM in each case. Further, the TGI in the test with HCT-116 colon, in the test on SNB-19 CNS, with CCRF-CEM leukemia and in the test on NCI-H460 lung was above 100 µM each time.

Take `Clc1ccccc1/C=c1\nc(-c2ccccc2)n2c1nc1ccccc12`: the TGI with SK-MEL-5 melanoma is above 100 µM; with UO-31 renal, above 100 µM; in the test on EKVX NSCLC, 62.9 µM; in the test on K-562 leukemia, above 100 µM; with OVCAR-3 ovarian it was above 100 µM; in the test on OVCAR-5 ovarian, above 100 µM. The TGI in the test with HCT-116 colon, in the test on SNB-19 CNS, in the test on CCRF-CEM leukemia and in the test on NCI-H460 lung was above 100 µM in each case.

Take `COc1ccc2nc3c(C(=O)NCCN(C)C)cccc3cc2c1`: the TGI with SK-MEL-5 melanoma is 3.28 µM; with UO-31 renal it was 3.97 µM; in the test with EKVX NSCLC, 6.25 µM; in the test with K-562 leukemia it was 17.1 µM; in the test on OVCAR-3 ovarian, above 28.6 µM; in the test with OVCAR-5 ovarian, 5.9 µM. For the same compound, the TGI in the test on HCT-116 colon amounted to 9.27 µM; in the test with SNB-19 CNS, 7.58 µM; in the test on CCRF-CEM leukemia, 8.14 µM; in the test with NCI-H460 lung it was 3.65 µM.

For the compound `Nc1c(C(=O)O)nnc2cc(Cl)c(Cl)cc12`, the TGI in the test on SK-MEL-5 melanoma, in the test on UO-31 renal, with EKVX NSCLC, in the test with K-562 leukemia, in the test on OVCAR-3 ovarian and in the test with OVCAR-5 ovarian was above 100 µM in each case. The TGI with HCT-116 colon, with SNB-19 CNS, in the test with CCRF-CEM leukemia and in the test on NCI-H460 lung was above 100 µM each time.
